Test system: Nrf2-mediated transcription off the antioxidant response element (ARE)
Experiment: ARE activation assay (ARE32 luciferase reporter cell line)
Assay type: cell-based
Settings: 24 hrs
Text: An ARE reporter cell line may be developed and used to screen for compounds that increase transcription off the ARE in response to oxidative stress, resulting in an increase in cellular antioxidant defense proteins. An ARE32 reporter cell line was adapted to provide an assay for cosmetic agents which may increase transcription off the ARE and increase expression of Phase 2 enzymes, thus augmenting the body's own antioxidant response. ARE32 is a stable reporter cell line produced by CXR Biosciences by transfecting MCF7 cells with pGL8x-ARE (8 copies of the rat GST ARE linked to the luciferase gene) and pCDNA3.1 which contains the neomycin selectable marker. Selection is performed in the presence of G418 and resistant clones are isolated and screened for induction of luciferase. An exemplary standard is tert-butyl hydroquinone (tBHQ), a known activator of Nrf2. ARE32 is a stable MCF7 cell line containing pGL8x-ARE (8 copies of the rat GST ARE linked to the luciferase gene) and pCDNA3.1 which contains the neomycin selectable marker, which was licensed from CXRbiosciences. Selection was performed in the presence of G418 and resistant clones were isolated. Clones were screened for induction of luciferase in response to tBHQ. ARE32 cells are maintained routinely in the DMEM (phenol red free) containing: • 10% FBS • 50 units/ml penicillin & 50 μg/ml streptomycin • 0.8 mg/ml G418 • Cells are subcultured every 3-4 days. […] Induction of Luciferase with tBHQ • 1. In a 96 well-plate, seed 1×10^4 cells/well in 100 μl DMEM containing 50 units/ml penicillin, 50 μg/ml streptomycin, 0.8 mg/ml G418 and 10% FBS. • 2. Incubate the cells at 37° C. in a 5% CO2 incubator for 24 hrs. • 3. […] (10 mM tBHQ of stock solution was freshly prepared in DMSO) • 4. Add 100 ul of media after treatment, final assay volume 200 uL. • 5. Incubate the cells at 37° C. in CO2 incubator for another 24 hrs. • 6. Assay for luciferase activity with Steady-glo Assay System by following the manufacture's instruction: • a. Remove 100 μL of media • b. Add 100 μl of reconstituted substrate directly to well • c. Incubate 5-10 min shaking. • d. […] Read plate for 5 seconds per well. The ARE activation assay described in Example 3 is employed. To test for transcription off the antioxidant response element, the reporter line is grown, compounds are added, each compound in varying doses, and allowed to incubate for 24 hours. Cells are then lysed and luminescent output is detected and quantified. […] Proposed compounds are screened using the ARE assay set forth in Example 3, above. Table 4 illustrates “ARE screening hits” along with concentrations tested for each compound and the observed percent increase in ARE. […]

Molecule: O=C(O)CCCCC1CCSS1 (stereo not drawn) [Alpha-lipoic acid]
- ARE (% control) (concentration tested 200 μM): 534 % control

Molecule: O=C(/C=C/c1ccc(O)c(O)c1)O[C@H](Cc1ccc(O)c(O)c1)C(=O)O [Rosmarinic acid]
- ARE (% control) (concentration tested 200 μM): 1211 % control

Molecule: CCCCCC/C=C/C#CCCCCCCCC(=O)O [Xymenynic acid]
- ARE (% control) (concentration tested 200 μM): 329 % control

Molecule: Umbelliferin
- ARE (% control) (concentration tested 0.01%): 1815 % control

From patent publication US20150322527A1, “TRANSCRIPTIONAL PROFILING AND BIOMARKER-BASED METHODS FOR IDENTIFYING AND EVALUATING AGENTS FOR ANTIOXIDANT EFFICACY IN COSMETIC SKIN CARE FORMULATIONS” (The Procter & Gamble Company, priority 2010, published 2015)
